Assay results as given in patent US9833497B2, “Human originated EGF domain proteins and use of the same” (CHENGDU SOURCEBIO LIMITED-LIABILITY COMPANY, priority 2013, dated 2017).

Legend:
Format in all cases: cell-based
[1] = system: Klebsiella pneumonia; assay: MIC against Gram-negative bacteria: Klebsiella pneumonia
Outline: (§1)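 First, colonies from LB agar were grown in LB at 37° C, 185 rpm, to McFarland turbidity 0.5, then centrifuged and resuspended in fresh LB. Next, wells received 5×10^5 CFU/mL bacteria plus two-fold serially diluted EGF domain protein (triplicate). Finally, plates were shaken at 37° C and the no-growth concentration taken as MIC.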

[2] = system: E. coli DH5α; assay: Antibacterial activity: MIC and growth curve against E. coli DH5α in 96-well plate; conditions: minimal inhibitory concentration against E. coli DH5α; 96-well plate, 5×10^5 CFU/mL, 37° C., judged after 8 h
Outline: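 MIC taken as lowest protein level with no bacterial growth, tracked by A600 every 30 min during 37 °C, 175 rpm culture. Two-fold protein series 50-12.5 μg/mL final, triplicate wells, against 5×10^5 CFU/mL of LB-washed mid-log cells.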

[3] = system: Serratia marcescens; assay: MIC against Gram-negative bacteria: Serratia marcescens
Outline: as §1

[4] = system: Proteus mirabilis; assay: MIC against Gram-negative bacteria: Proteus mirabilis
Outline: as §1

[5] = system: Citrobacter diversus; assay: MIC against Gram-negative bacteria: Citrobacter diversus
Outline: as §1

[6] = system: Proteus vulgaris; assay: MIC against Gram-negative bacteria: Proteus vulgaris
Outline: as §1

[7] = system: Moraxella catarrhalis; assay: MIC against Gram-negative bacteria: Moraxella catarrhalis
Outline: as §1

[8] = system: Aeromonas hydrophila; assay: MIC against Gram-negative bacteria: Aeromonas hydrophila
Outline: as §1

[9] = system: E. coli BL21; assay: MIC against Gram-negative bacteria: E. coli BL21
Outline: as §1

[10] = system: Enterobacter cloacae; assay: MIC against Gram-negative bacteria: Enterobacter cloacae
Outline: as §1

[11] = system: Pseudomonas aeruginosa; assay: MIC against Gram-negative bacteria: Pseudomonas aeruginosa
Outline: as §1

[12] = K. pneumonia, 10 h cultivation at 37° C., 5×10^5 CFU/mL
[13] = S. marcescens, 10 h cultivation at 37° C., 5×10^5 CFU/mL
[14] = P. mirabilis, 10 h cultivation at 37° C., 5×10^5 CFU/mL
[15] = C. diversus, 10 h cultivation at 37° C., 5×10^5 CFU/mL
[16] = P. vulgaris, 10 h cultivation at 37° C., 5×10^5 CFU/mL
[17] = M. catarrhalis, 10 h cultivation at 37° C., 5×10^5 CFU/mL
[18] = A. hydrophila, 10 h cultivation at 37° C., 5×10^5 CFU/mL
[19] = E. coli BL21, 10 h cultivation at 37° C., 5×10^5 CFU/mL
[20] = E. cloacae, 10 h cultivation at 37° C., 5×10^5 CFU/mL
[21] = P. aeruginosa, 10 h cultivation at 37° C., 5×10^5 CFU/mL
[22] = 96-well plate, 5×10^5 CFU/mL, 37° C., 10 h
[23] = K. pneumonia, 10 h cultivation at 37° C.
[24] = S. marcescens, 10 h cultivation at 37° C.
[25] = P. mirabilis, 10 h cultivation at 37° C.
[26] = C. diversus, 10 h cultivation at 37° C.
[27] = P. vulgaris, 10 h cultivation at 37° C.
[28] = M. catarrhalis, 10 h cultivation at 37° C.
[29] = A. hydrophila, 10 h cultivation at 37° C.
[30] = E. coli BL21, 10 h cultivation at 37° C.
[31] = E. cloacae, 10 h cultivation at 37° C.
[32] = P. aeruginosa, 10 h cultivation at 37° C.
[33] = 10 h cultivation at 37° C., 5×10^5 CFU/mL, two-fold serial dilution
[34] = Klebsiella pneumonia, 96-well plate, 5×10^5 CFU/mL, 37° C., 10 h
[35] = Serratia marcescens, 96-well plate, 5×10^5 CFU/mL, 37° C., 10 h
[36] = Proteus mirabilis, 96-well plate, 5×10^5 CFU/mL, 37° C., 10 h
[37] = Citrobacter diversus, 96-well plate, 5×10^5 CFU/mL, 37° C., 10 h
[38] = Proteus vulgaris, 96-well plate, 5×10^5 CFU/mL, 37° C., 10 h
[39] = Moraxella catarrhalis, 96-well plate, 5×10^5 CFU/mL, 37° C., 10 h
[40] = Aeromonas hydrophila, 96-well plate, 5×10^5 CFU/mL, 37° C., 10 h
[41] = E. coli BL21, 96-well plate, 5×10^5 CFU/mL, 37° C., 10 h
[42] = Enterobacter cloacae, 96-well plate, 5×10^5 CFU/mL, 37° C., 10 h
[43] = Pseudomonas aeruginosa, 96-well plate, 5×10^5 CFU/mL, 37° C., 10 h

PRT812 (YGKHCRKKCNCANRGRCHRLYGACLCDPGLYGRFCH; listed as Homo sapiens)
12.5 µg/mL: MIC [2] | MIC (μg/mL) S. marcescens [3, 13] | MIC (μg/mL) P. mirabilis [4, 14] | MIC (μg/mL) C. diversus [5, 15] | MIC (μg/mL) E. coli BL21 [9, 19] | MIC (μg/mL) P. aeruginosa [11, 21]
50 µg/mL: MIC (μg/mL) P. vulgaris [6, 16] | MIC (μg/mL) M. catarrhalis [7, 17] | MIC (μg/mL) E. cloacae [10, 20]
25 µg/mL: MIC (μg/mL) K. pneumonia [1, 12] | MIC (μg/mL) A. hydrophila [8, 18]

PRT535 (CQCDIGGALSSMCSGPSGVCQCREHVVGKVCQRPENNYYFPDLHH; listed as Homo sapiens)
25 µg/mL: MIC against E. coli BL21 [9, 22]
12.5 µg/mL: MIC against K. pneumonia [1, 22] | MIC [2] | MIC against P. vulgaris [6, 22] | MIC against M. catarrhalis [7, 22] | MIC against A. hydrophila [8, 22]
50 µg/mL: MIC against S. marcescens [3, 22] | MIC against P. mirabilis [4, 22] | MIC against C. diversus [5, 22] | MIC against E. cloacae [10, 22] | MIC against P. aeruginosa [11, 22]

PRT898 (NNNECESNPCVNGGTCKDMTSGYVCTCREGFSGPNCQ; listed as Homo sapiens)
12.5 µg/mL: MIC [1, 23] | MIC [3, 24] | MIC [4, 25] | MIC [5, 26] | MIC [7, 28] | MIC [8, 29]
25 µg/mL: MIC [2] | MIC [6, 27] | MIC [11, 32]
50 µg/mL: MIC [9, 30] | MIC [10, 31]

PRT798 (FGQDCAQLCSCANNGTCSPIDGSCQCFPGWIGKDCS; listed as Homo sapiens)
50 µg/mL: MIC (μg/mL) K. pneumonia [1, 12] | MIC (μg/mL) P. vulgaris [6, 16] | MIC (μg/mL) M. catarrhalis [7, 17] | MIC (μg/mL) A. hydrophila [8, 18]
12.5 µg/mL: MIC [2] | MIC (μg/mL) P. mirabilis [4, 14] | MIC (μg/mL) C. diversus [5, 15] | MIC (μg/mL) E. cloacae [10, 20] | MIC (μg/mL) P. aeruginosa [11, 21]
25 µg/mL: MIC (μg/mL) S. marcescens [3, 13] | MIC (μg/mL) E. coli BL21 [9, 19]

PRT1133 (KAGPCEQAGSPCRNGGQCQDDQGFALNFTCRCLVGFVGARCE; listed as Homo sapiens)
25 µg/mL: MIC P. vulgaris [6, 33] | MIC M. catarrhalis [7, 33] | MIC A. hydrophila [8, 33] | MIC E. cloacae [10, 33]
12.5 µg/mL: MIC K. pneumonia [1, 33] | MIC [2] | MIC S. marcescens [3, 33] | MIC P. mirabilis [4, 33] | MIC C. diversus [5, 33] | MIC E. coli BL21 [9, 33] | MIC P. aeruginosa [11, 33]

PRT439 (DINECQESSPCHQRCFNAIGSFHCGCEPGYQLKGRKCM; listed as Homo sapiens)
25 µg/mL: MIC [2] | MIC [5, 15] | MIC [10, 20] | MIC [11, 21]
12.5 µg/mL: MIC [3, 13] | MIC [4, 14] | MIC [8, 18] | MIC [9, 19]
50 µg/mL: MIC [1, 12] | MIC [6, 16] | MIC [7, 17]

PRT837 (RFSLCPGGCQSHGQCQPPGVCACEPGWGGPD; listed as Homo sapiens)
12.5 µg/mL: MIC (μg/mL) S. marcescens [3, 13] | MIC (μg/mL) P. mirabilis [4, 14] | MIC (μg/mL) C. diversus [5, 15] | MIC (μg/mL) P. vulgaris [6, 16] | MIC (μg/mL) E. coli BL21 [9, 19] | MIC (μg/mL) E. cloacae [10, 20]
25 µg/mL: MIC (μg/mL) K. pneumonia [1, 12] | MIC [2] | MIC (μg/mL) M. catarrhalis [7, 17] | MIC (μg/mL) A. hydrophila [8, 18] | MIC (μg/mL) P. aeruginosa [11, 21]

PRT920 (DVDECQLMPNACQNGGTCHNTHGGYNCVCVNGWTGEDCS; listed as Homo sapiens)
25 µg/mL: MIC [8, 29] | MIC [9, 30] | MIC [11, 32]
12.5 µg/mL: MIC [2] | MIC [6, 27] | MIC [7, 28] | MIC [10, 31]
50 µg/mL: MIC [1, 23] | MIC [3, 24] | MIC [4, 25] | MIC [5, 26]

PRT42 (CQCNGHSKCINQSICEKCENLTTGKHCETCISGFYGDPTNGGKCQP; listed as Homo sapiens)
12.5 µg/mL: MIC (μg/mL) K. pneumonia [1, 34] | MIC (μg/mL) M. catarrhalis [7, 39] | MIC (μg/mL) A. hydrophila [8, 40] | MIC (μg/mL) E. coli BL21 [9, 41]
50 µg/mL: MIC (μg/mL) S. marcescens [3, 35]
25 µg/mL: MIC [2] | MIC (μg/mL) P. mirabilis [4, 36] | MIC (μg/mL) C. diversus [5, 37] | MIC (μg/mL) E. cloacae [10, 42] | MIC (μg/mL) P. aeruginosa [11, 43]
100 µg/mL: MIC (μg/mL) P. vulgaris [6, 38]

PRT1374 (GVRQCPNDCSQHGVCQDGVCICWEGYVSEDC; listed as Homo sapiens)
12.5 µg/mL: MIC against K. pneumonia ([1]; Klebsiella pneumonia, 5×10^5 CFU/mL, 10 h cultivation at 37° C.) | MIC against S. marcescens ([3]; Serratia marcescens, 5×10^5 CFU/mL, 10 h cultivation at 37° C.) | MIC against P. mirabilis ([4]; Proteus mirabilis, 5×10^5 CFU/mL, 10 h cultivation at 37° C.) | MIC against C. diversus ([5]; Citrobacter diversus, 5×10^5 CFU/mL, 10 h cultivation at 37° C.) | MIC against P. vulgaris ([6]; Proteus vulgaris, 5×10^5 CFU/mL, 10 h cultivation at 37° C.) | MIC against M. catarrhalis ([7]; Moraxella catarrhalis, 5×10^5 CFU/mL, 10 h cultivation at 37° C.) | MIC against A. hydrophila ([8]; Aeromonas hydrophila, 5×10^5 CFU/mL, 10 h cultivation at 37° C.) | MIC against E. coli BL21 ([9]; E. coli BL21, 5×10^5 CFU/mL, 10 h cultivation at 37° C.)
25 µg/mL: MIC against E. cloacae ([10]; Enterobacter cloacae, 5×10^5 CFU/mL, 10 h cultivation at 37° C.) | MIC against P. aeruginosa ([11]; Pseudomonas aeruginosa, 5×10^5 CFU/mL, 10 h cultivation at 37° C.)
50 µg/mL: MIC [2]

PRT815 (YGPSCQTRCSCANDGHCHPATGHCSCAPGWTGFSCQ; listed as Homo sapiens)
12.5 µg/mL: MIC (μg/mL) K. pneumonia [1, 12] | MIC (μg/mL) P. vulgaris [6, 16] | MIC (μg/mL) A. hydrophila [8, 18] | MIC (μg/mL) E. coli BL21 [9, 19] | MIC (μg/mL) P. aeruginosa [11, 21]
50 µg/mL: MIC (μg/mL) M. catarrhalis [7, 17]
25 µg/mL: MIC [2] | MIC (μg/mL) S. marcescens [3, 13] | MIC (μg/mL) P. mirabilis [4, 14] | MIC (μg/mL) C. diversus [5, 15] | MIC (μg/mL) E. cloacae [10, 20]

PRT1196 (DVDLCEPSPCRNGARCYNLEGDYYCACPDDFGGKNCS; listed as Homo sapiens)
25 µg/mL: MIC against K. pneumonia [1, 34] | MIC against P. vulgaris [6, 38] | MIC against M. catarrhalis [7, 39] | MIC against A. hydrophila [8, 40] | MIC against E. cloacae [10, 42]
12.5 µg/mL: MIC [2] | MIC against P. mirabilis [4, 36] | MIC against P. aeruginosa [11, 43]
50 µg/mL: MIC against S. marcescens [3, 35] | MIC against C. diversus [5, 37] | MIC against E. coli BL21 [9, 41]

PRT917 (DVNECGQKPGLCRHGGTCHNEVGSYRCVCRATHTGPNCE; listed as Homo sapiens)
50 µg/mL: MIC [7, 28] | MIC [9, 30] | MIC [10, 31]
12.5 µg/mL: MIC [5, 26] | MIC [11, 32]
25 µg/mL: MIC [1, 23] | MIC [2] | MIC [3, 24] | MIC [4, 25] | MIC [6, 27] | MIC [8, 29]
